Biological target: KanJ (kanamycin B dioxygenase) (Streptomyces kanamyceticus, UniProt Q6L732)
Experiment: isothermal titration calorimetry
Format: binding

Chain of KanJ (kanamycin B dioxygenase) (Q6L732 whole entry): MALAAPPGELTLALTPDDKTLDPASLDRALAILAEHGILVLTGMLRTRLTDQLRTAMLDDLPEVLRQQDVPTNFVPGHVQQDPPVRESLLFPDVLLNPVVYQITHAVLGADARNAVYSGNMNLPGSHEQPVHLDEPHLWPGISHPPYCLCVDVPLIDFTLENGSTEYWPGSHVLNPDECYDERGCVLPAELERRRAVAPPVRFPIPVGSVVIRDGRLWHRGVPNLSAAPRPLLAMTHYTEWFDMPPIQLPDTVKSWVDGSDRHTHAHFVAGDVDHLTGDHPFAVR

In the case of `NC[C@H]1O[C@H](O[C@H]2[C@H](O)[C@@H](O[C@H]3O[C@H](CO)[C@@H](O)[C@H](N)[C@H]3O)[C@H](N)C[C@@H]2N)[C@H](N)[C@@H](O)[C@@H]1O` [KAN, kanamycin B], the Kd is reported as 1.54 µM.
